Common to all, as to type: cell-based
The subject of assay [1] is Proteus vulgaris HX 19. As to the kind of experiment: antimicrobial activity, minimum inhibitory concentration, Proteus vulgaris HX 19. The settings on record: HX19. The protocol:
(§1) The antimicrobial activities of the compounds prepared in the previous Examples were determined in a usual manner and the minimum inhibitory concentrations (in terms of μg/ml) are set forth in the Table below.

Assay [2] relates to Pseudomonas aeruginosa IID 5142. As to the kind of experiment: antimicrobial activity, minimum inhibitory concentration, Pseudomonas aeruginosa IID 5142. The note with it: IID5142. The protocol:
as §1

Assay [3] relates to Enterobacter aerogenes No. 101. As to the kind of experiment: antimicrobial activity, minimum inhibitory concentration, Enterobacter aerogenes No. 101. The settings on record: Klebsiella aerogenes. The protocol: as §1
Assay [4] concerns Escherichia coli NIHJ. The assay can be described thus: antimicrobial activity, minimum inhibitory concentration, Escherichia coli NIHJ.
For assay [5], the system named is Serratia No. 115. As to the kind of experiment: antimicrobial activity, minimum inhibitory concentration, Serratia No. 115. The protocol:
as §1

Values after ≈ are worked out from the molar mass of the structure shown.

For the compound `CO[C@@]1(NC(=O)C(NC(=O)c2cnc3ccc(SC)nc3c2O)c2ccc(O)c(Cl)c2)C(=O)N2C(C(=O)O)=C(CSc3nnc(CO)s3)CS[C@@H]21` (stereo partly shown) [Example 20], the MIC in assay [1] came to 0.39 µg/mL (≈ 0.492 µM); in assay [2], 3.13 µg/mL (≈ 3.95 µM); in assay [3], 6.25 µg/mL (≈ 7.89 µM); in assay [4], 3.13 µg/mL (≈ 3.95 µM); in assay [5] it was 6.25 µg/mL (≈ 7.89 µM).
As to `CNc1nnc(SCC2=C(C(=O)O)N3C(=O)[C@](NC(=O)C(NC(=O)c4cnc5ccc(OC)nc5c4O)c4ccc(O)c(Cl)c4)(OC)[C@H]3SC2)s1` (stereo partly shown) [Example 21], the MIC in assay [1] turned out to be 0.39 µg/mL (≈ 0.503 µM); in assay [2], 3.13 µg/mL (≈ 4.04 µM); in assay [3], 6.25 µg/mL (≈ 8.06 µM); in assay [4] it was 1.56 µg/mL (≈ 2.01 µM); in assay [5], 12.5 µg/mL (≈ 16.1 µM).
On to `CCN(CC)c1ccc2ncc(C(=O)NC(C(=O)N[C@]3(OC)C(=O)N4C(C(=O)O)=C(CSc5cnn[nH]5)CS[C@@H]43)c3ccc(O)cc3)c(O)c2n1` (stereo partly shown) [Example 22], for which the MIC in assay [1] worked out at 0.39 µg/mL (≈ 0.53 µM); in assay [2], 3.13 µg/mL (≈ 4.25 µM); in assay [3], 6.25 µg/mL (≈ 8.49 µM); in assay [4], 3.13 µg/mL (≈ 4.25 µM); in assay [5] it was 25 µg/mL (≈ 34 µM).
On to `CO[C@@]1(NC(=O)C(NC(=O)c2cccnc2O)c2ccc(O)cc2)C(=O)N2C(C(=O)O)=C(COC(N)=O)CS[C@@H]21` (stereo partly shown) [Example 23], for which the MIC turned out to be 0.78 µg/mL (≈ 1.36 µM) in assay [1]; 12.5 µg/mL (≈ 21.8 µM) in assay [2]; 50 µg/mL (≈ 87.2 µM) in assay [3]; 12.5 µg/mL (≈ 21.8 µM) in assay [4]; 100 µg/mL (≈ 174 µM) in assay [5].
For `CO[C@@]1(NC(=O)C(NC(=O)c2ncccc2O)c2ccccc2)C(=O)N2C(C(=O)[O-])=C(C[n+]3ccc(C(N)=O)cc3)CS[C@@H]21` (stereo partly shown) [Example 24], the MIC was 0.78 µg/mL (≈ 1.26 µM) in assay [1]; 12.5 µg/mL (≈ 20.2 µM) in assay [2]; 25 µg/mL (≈ 40.4 µM) in assay [3]; 12.5 µg/mL (≈ 20.2 µM) in assay [4]; 50 µg/mL (≈ 80.8 µM) in assay [5].
As for `CO[C@@]1(NC(=O)C(NC(=O)c2cnc3nc(N4CCNCC4)ncc3c2O)c2ccc(O)cc2)C(=O)N2C(C(=O)O)=C(COC(N)=O)CS[C@@H]21` (stereo partly shown) [Example 25], the MIC in assay [1] is 0.78 µg/mL (≈ 1.1 µM); in assay [2], 6.25 µg/mL (≈ 8.81 µM); in assay [3], 25 µg/mL (≈ 35.2 µM); in assay [4], 12.5 µg/mL (≈ 17.6 µM); in assay [5], 50 µg/mL (≈ 70.5 µM).
For the compound `CO[C@@]1(NC(=O)C(NC(=O)c2cnc3nc(N4CCCC4)cnc3c2O)c2ccc(O)cc2)C(=O)N2C(C(=O)O)=C(CSc3n[nH]c(=S)s3)CS[C@@H]21` (stereo partly shown) [Example 26], the MIC was determined as 0.39 µg/mL (≈ 0.498 µM) in assay [1]; 6.25 µg/mL (≈ 7.97 µM) in assay [2]; 12.5 µg/mL (≈ 15.9 µM) in assay [3]; 6.25 µg/mL (≈ 7.97 µM) in assay [4]; 12.5 µg/mL (≈ 15.9 µM) in assay [5].
With `CO[C@@]1(NC(=O)C(NC(=O)c2nccnc2O)c2ccc(O)cc2)C(=O)N2C(C(=O)O)=C(CSc3nnc(C)s3)CS[C@@H]21` (stereo partly shown) [Example 27], the MIC in assay [1] is 1.56 µg/mL (≈ 2.42 µM); in assay [2], 25 µg/mL (≈ 38.7 µM); in assay [3], 50 µg/mL (≈ 77.4 µM); in assay [4] it was 25 µg/mL (≈ 38.7 µM); in assay [5], 50 µg/mL (≈ 77.4 µM).
`COC1(NC(=O)C(NC(=O)c2cc3ncccc3nc2O)c2ccc(O)cc2)C(=O)N2C(C(=O)O)=C(CSc3nnnn3C)CSC21` (stereo not shown) [Example 28]: the MIC was found to be 0.39 µg/mL (≈ 0.574 µM) in assay [1]; 3.13 µg/mL (≈ 4.6 µM) in assay [2]; 6.25 µg/mL (≈ 9.2 µM) in assay [3]; 1.56 µg/mL (≈ 2.3 µM) in assay [4]; 6.25 µg/mL (≈ 9.2 µM) in assay [5].
On to `COC1(NC(=O)C(NC(=O)c2cnc3sccc3c2O)c2ccc(O)cc2)C(=O)N2C(C(=O)O)=C(CSc3nnnn3C)CSC21` (stereo not shown) [Example 29], for which the MIC turned out to be 0.78 µg/mL (≈ 1.14 µM) in assay [1]; 6.25 µg/mL (≈ 9.13 µM) in assay [2]; 12.5 µg/mL (≈ 18.3 µM) in assay [3]; 12.5 µg/mL (≈ 18.3 µM) in assay [4]; 12.5 µg/mL (≈ 18.3 µM) in assay [5].
For the compound `COC1(NC(=O)C(NC(=O)c2cnc3scnc3c2O)c2ccc(O)cc2)C(=O)N2C(C(=O)O)=C(COC(N)=O)CSC21` (stereo not shown) [Example 30], the MIC is 0.39 µg/mL (≈ 0.618 µM) in assay [1]; 6.25 µg/mL (≈ 9.91 µM) in assay [2]; 12.5 µg/mL (≈ 19.8 µM) in assay [3]; 6.25 µg/mL (≈ 9.91 µM) in assay [4]; 12.5 µg/mL (≈ 19.8 µM) in assay [5].

What is called MIC is the least concentration at which growth counts as inhibited.

These data come from US4226863A, “7-Methoxy cephalosporins” (Sumitomo Chemical Company, Limited, priority 1975, dated 1980).
